According to publication PMC5785531, “Pharmacokinetic parameters explain the therapeutic activity of antimicrobial agents in a silkworm infection model” (Scientific Reports, 2018):
Converted amounts (≈) assume the structure as drawn. Read-outs that look alike come from different tables or passages of the source.

What was measured:
MSSA1 (clinical isolate) = experiment: MIC by broth microdilution assay; assay type: cell-based; conditions: Staphylococcus aureus, MSSA, median of three experiments
Experimental: (§1) Antimicrobial activity was assessed by determining the MIC by broth dilution assay according to our previous reports[21],[35],[36] as per the Clinical and Laboratory Standards Institute[37]. Briefly, serial dilutions of compound 5, compound 7, and positive controls were prepared in cation-adjusted Mueller-Hinton Broth (MHB, Difco, Franklin Lakes, NJ, USA), 100 µl of which was dispensed into each well of a round-bottomed 96-well plate. The final concentrations in the well ranged from 128 µg/ml to 0.0625 µg/ml. Bacteria were grown at 37 °C overnight on either Luria Bertani (tryptone 10 g/l, yeast extract 5 g/l, NaCl 10 g/l) or Tryptic Soy Broth (TSB, Difco) agar plates or sheep blood agar plates (Eiken Chemical Co. Ltd., Tokyo, Japan). Bacterial inoculum was prepared by direct suspension of the colonies in 0.9% saline, and adjusted to obtain a turbidity equivalent to a 0.5 McFarland standard using a spectrophotometer UV-1280 (Shimadzu Corp., Kyoto, Japan). The suspension was then diluted 1:20 in cation-adjusted MHB (Difco), and 10 µl of it was inoculated into each well of previously prepared 96-well plates containing compounds to obtain approximately 5 × 10^4 colony forming units/well and incubated at 37 °C for 20 h. […] Vancomycin (Wako Pure Chemicals) or norfloxacin (Sigma Aldrich, St Louis, MO, USA) were used as positive controls. Each plate contained a growth control well and a vehicle control well. The MIC was determined as the minimum concentration that inhibited the growth of the bacteria.

NCTC8325 = experiment: MIC by broth microdilution assay; assay type: cell-based; conditions: Staphylococcus aureus, MSSA / NCTC 8325, median of three experiments
Experimental: as §1

Escherichia coli W3110 = experiment: MIC by broth microdilution assay; assay type: cell-based; conditions: median of three experiments
Experimental: as §1

[1] = test system: Pseudomonas aeruginosa PAO1; experiment: MIC by broth microdilution assay; assay type: cell-based; conditions: median of three experiments
Experimental: as §1

Smith ATCC13709 = experiment: MIC by broth microdilution assay; assay type: cell-based; conditions: Staphylococcus aureus, ATCC 13709 / MSSA, median of three experiments
Experimental: as §1

Newman = experiment: MIC by broth microdilution assay; assay type: cell-based; conditions: Staphylococcus aureus, MSSA, median of three experiments
Experimental: as §1

Staphylococcus simulans = experiment: MIC by broth microdilution assay; assay type: cell-based; conditions: median of three experiments
Experimental: as §1

[2] = test system: Bacillus subtilis JCM2499; experiment: MIC by broth microdilution assay; assay type: cell-based; conditions: median of three experiments
Experimental: as §1

[3] = test system: Vancomycin- resistant E. faecalis EF5; experiment: MIC by broth microdilution assay; assay type: cell-based; conditions: Enterococcus faecalis, median of three experiments
Experimental: as §1

[4] = test system: Listeria monocytogenes 10403S; experiment: MIC by broth microdilution assay; assay type: cell-based; conditions: median of three experiments
Experimental: as §1

[5] = test system: Staphylococcus haemolyticus JCM2416; experiment: MIC by broth microdilution assay; assay type: cell-based; conditions: median of three experiments
Experimental: as §1

[6] = test system: USA300 FPR3757 (clinical isolate); experiment: MIC by broth microdilution assay; assay type: cell-based; conditions: Staphylococcus aureus, MRSA, median of three experiments
Experimental: as §1

[7] = test system: Enterococcus faecalis EF1; experiment: MIC by broth microdilution assay; assay type: cell-based; conditions: median of three experiments
Experimental: as §1

[8] = test system: Streptococcus sanguinis JCM5708; experiment: MIC by broth microdilution assay; assay type: cell-based; conditions: MHB with 2.5% lysed horse blood, 24 h, median of three experiments
Experimental: as §1

Bacillus cereus JCM20037 = experiment: MIC by broth microdilution assay; assay type: cell-based; conditions: median of three experiments
Experimental: as §1

[9] = test system: Staphylococcus pseudintermedius JCM17571; experiment: MIC by broth microdilution assay; assay type: cell-based; conditions: median of three experiments
Experimental: as §1

S. aureus MSSA1 = experiment: Silkworm systemic infection model, therapeutic activity (ED50); assay type: in vivo, Staphylococcus aureus
Excerpt: We synthesized 50 compounds (Fig. 2, Supplementary Table 1) using the Steglich esterification scheme[31] in the presence of a […], 1-ethyl-3-(3-dimethylaminopropyl)-carbodiimide hydrochloride (Fig. 1b). Antimicrobial activities of the compounds were examined by determining the MIC against S. aureus MRSA4 in vitro; therapeutic activities were examined using a systemic infection model of silkworms infected with S. aureus MSSA1.
A total of 108,373 compounds from the chemical library of the Drug Discovery Initiative at the University of Tokyo were screened for antibacterial activity against S. aureus strain MRSA4 as previously reported. Those compounds that inhibited the growth of MRSA4 at 100 µM were further evaluated for their therapeutic effects in silkworms infected with S. aureus strain MSSA1 according to previously reported studies[17],[21].

[10] = test system: Streptococcus pyogenes SSI-9; experiment: MIC by broth microdilution assay; assay type: cell-based; conditions: SSI9, MHB with 2.5% lysed horse blood, 24 h, median of three experiments
Experimental: as §1, with “obtain approximately 5 × 10^4 colony forming units/well and incubated at 37 °C for 20 h.” left out

[11] = test system: Streptococcus pneumoniae (clinical isolate); experiment: MIC by broth microdilution assay; assay type: cell-based; conditions: MHB with 2.5% lysed horse blood, 24 h, median of three experiments
Experimental: as §1, with “obtain approximately 5 × 10^4 colony forming units/well and incubated at 37 °C for 20 h.” left out

[12] = test system: Streptococcus agalactiae JCM5671; experiment: MIC by broth microdilution assay; assay type: cell-based; conditions: MHB with 2.5% lysed horse blood, 24 h, median of three experiments
Experimental: as §1, with “obtain approximately 5 × 10^4 colony forming units/well and incubated at 37 °C for 20 h.” left out

[13] = Staphylococcus aureus, silkworms infected with S. aureus MSSA1 (Fig. 2), read-out: ED50

| Structure (SMILES) | MIC (MSSA1 (clinical isolate)) [µg/mL] | MIC (NCTC8325) [µg/mL] | MIC (Escherichia coli W3110) [µg/mL] | MIC [1] [µg/mL] | MIC (Smith ATCC13709) [µg/mL] | MIC (Newman) [µg/mL] | MIC (Staphylococcus simulans) [µg/mL] | MIC [2] [µg/mL] | MIC [3] [µg/mL] | MIC [4] [µg/mL] | MIC [5] [µg/mL] | MIC [6] [µg/mL] | MIC [7] [µg/mL] | MIC [8] [µg/mL] | MIC (Bacillus cereus JCM20037) [µg/mL] | MIC [9] [µg/mL] | ED50 (S. aureus MSSA1; S. aureus-infected silkworms) [µg/g] | ED50 (S. aureus MSSA1; [13]) [mg/kg] | MIC [10] [µg/mL] | MIC [11] [µg/mL] | also measured |
| --- | --- | --- | --- | --- | --- | --- | --- | --- | --- | --- | --- | --- | --- | --- | --- | --- | --- | --- | --- | --- | --- |
| O=C(OCc1cc(Cl)cc(Cl)c1)c1ccc([N+](=O)[O-])s1 [compound 5] | 0.5 (≈ 1.51 µM) | 0.5 (≈ 1.51 µM) | > 128 | > 128 | 0.5 (≈ 1.51 µM) | 0.5 (≈ 1.51 µM) | 0.25 (≈ 0.753 µM) | 1 (≈ 3.01 µM) | > 128 | > 128 | 0.25 (≈ 0.753 µM) | 1 (≈ 3.01 µM) | > 128 | > 128 | 1 (≈ 3.01 µM) | 0.125 (≈ 0.376 µM) | 22 | 22 | 8 (≈ 24.1 µM) | 1 (≈ 3.01 µM) | MIC [12]: > 128 µg/mL |
| O=C(OCc1ccccc1)c1ccc([N+](=O)[O-])s1 [compound 7] | 1 (≈ 3.8 µM) | 1 (≈ 3.8 µM) | > 128 | > 128 | 0.5 (≈ 1.9 µM) | 1 (≈ 3.8 µM) | 0.5 (≈ 1.9 µM) | 1 (≈ 3.8 µM) | > 128 | > 128 | 0.25 (≈ 0.95 µM) | 1 (≈ 3.8 µM) | > 128 | > 128 | 1 (≈ 3.8 µM) | 0.5 (≈ 1.9 µM) | > 170 | > 170 | 16 (≈ 60.8 µM) | 1 (≈ 3.8 µM) | MIC [12]: > 128 µg/mL |
